Experiments:
[1] = initiation during an acute gout attack, 57 men with crystal-proven gout; cited from earlier work
[2] = in vivo; cited from earlier work
[3] = Method: (§1) Each tablet contains 450 mg of pharmaceutical grade of GSH powder.
(§2) Seven (7) subjects with gout and hyperuricemia were examined. Specifically, these seven subjects were part of an open-label, twelve (12) weeks study in which they received 2700 mg daily (450 mg/tablet, 2 tablets/time, 3 times/day) of (2S)-2-Amino-4-{[(1R)-1-[(carboxymethyl)carbamoyl]-2-sulfanylethyl]carbamoyl}butanoic acid (hereinafter “CT° 1”).

[4] = remark: listed apart in the source
Method: as §1, §2
All of the subjects were classified as renally impaired (glomerular filtration rate <80 ml/minute). A serum creatinine test measures the level of creatinine in the blood and provides an estimate of glomerular filtration rate that indicates the excretory function of the kidney. If the kidney functions improperly, an increased level of creatinine may accumulate in the blood.

[5] = after 12 weeks of treatment versus first visit, 2700 mg daily oral

Question: With `Oc1ncnc2[nH]ncc12` [allopurinol] as the compound, how does the “effect on daily pain, recurrent flares, or inflammatory markers” value [1] read?
Answer: Its value is “no significant difference”.

Question: Which “part of the dose excreted unchanged by the kidney” value [2] does the source give for `COc1cc2c(c(OC)c1OC)-c1ccc(OC)c(=O)cc1[C@@H](NC(C)=O)CC2` [colchicine] here?
Answer: Its value is 10-20%.

Question: And the removal by hemodialysis [2]?
Answer: The removal by hemodialysis was “not removable by hemodialysis”.

Question: Which results are given for `N[C@@H](CCC(=O)N[C@@H](CS)C(=O)NCC(=O)O)C(=O)O` [CT°I, (2S)-2-Amino-4-{[(1R)-1-[(carboxymethyl)carbamoyl]-2-sulfanylethyl]carbamoyl}butanoic acid]?
Answer: mean blood lead level after 12 weeks of treatment ([3]; 7 subjects, 2700 mg daily oral, 12 weeks, first visit 49.90±8.41 μg/dL): 37.26 ± 6.29 µg/dL; mean serum urate after 12 weeks of treatment ([3]; 7 subjects, 2700 mg daily oral, 12 weeks, first visit 521.07±40.11 mg/L): 346.46 ± 21.17 mg/L; reduction of blood lead level [3, 5]: 25.33%; reduction of serum urate [3, 5]: 33.51%; significance of the reduction of blood lead level ([3]; p<0.05, 2700 mg daily oral): significantly different after 12 weeks of treatment; significance of the reduction of serum urate ([3]; p<0.05, 2700 mg daily oral): significantly different after 8 weeks of treatment; mean serum creatinine after 12 weeks of treatment ([4]; 7 subjects, 2700 mg daily oral, 12 weeks, first visit 135.29±6.89 μmol/L): 99.00 ± 4.45 µmol/L; reduction of serum creatinine [4, 5]: 26.82%; significance of the reduction of serum creatinine ([4]; p<0.05, 2700 mg daily oral): significantly different after 8 weeks of treatment

Reference: patent US20180008665A1, “METHODS OF TREATING AND PREVENTING GOUT AND LEAD NEPHROPATHY” (priority 2016, published 2018)
